Reference: patent US5061706A, “2,3-quinoxalinediones for use as neuroleptics” (priority 1988, dated 1991)
Values after ≈ are worked out from the molar mass of the structure shown.

test system: quisqualate receptors; assay: not given; conditions: in words, literature; cited from earlier work

SMILES	agonist or antagonist activity on quisqualate receptors
Cc1onc(O)c1CC(N)C(=O)O (stereo not drawn) [AMPA, 2-amino-3-hydroxy-5-methyl-4-isoxazolepropionic acid]	potent agonists
CCOC(=O)CC[C@H](N)C(=O)OCC [GDEE, Glutamic acid diethyl ester]	selective but very weak antagonist
N[C@@H](CCC(=O)O)C(=O)O [L-glutamic acid]	potent agonists
N[C@@H](Cn1oc(=O)[nH]c1=O)C(=O)O [quisqualic acid]	activated selectively

target: quisqualate type receptors; assay: 3H-AMPA binding (displacement of 3H-AMPA from quisqualate type receptors, rat cerebral cortical membrane homogenate); conditions: concentration causing 50% displacement of specific 3H-AMPA binding; Hill analysis; pH 7.1, 0° C., 30 min
Description: The pharmacological properties of the compounds of the present invention can be illustrated by determining their capability for displacing radioactively labelled 2-amino-3-hydroxy-5-methyl-4-isoxazolepropionic acid (AMPA) from the quisqualate type receptors.
The displacement activity of the compounds may be shown by determining the IC50 value which represents the concentration (μg/ml) which causes a displacement of 50% of the specific binding of ^3 H-AMPA.
500 μl of thawed rat cerebral cortical membrane homogenate in Tris-HCl (30 mM), CaCl2 (2.5 mM) and KSCN (100 mM) pH 7.1 were incubated at 0° C. for 30 min. with 25 μl ^3 H-AMPA (5 nM final concentration) and the test compound and buffer. Nonspecific binding was determined by incubation with L-glutamic acid (600 μM final concentration). The binding reaction was terminated by adding 5 ml of ice-cold buffer followed by filtration through Whatman GF/C glass fibre filters and 2×5 ml wash with ice-cold buffer. Bound radioactivity was measured by scintillation counting. IC50 was determined by Hill analysis of at least four concentrations of test compound.

SMILES	IC50 [µg/mL]
CC(=O)c1cc2c(cc1C#N)[nH]c(=O)c(=O)n2O [Example 34 e, 7-Acetyl-6-cyano-1-hydroxyquinoxaline-2,3(1H,4H)-dione]	0.09 (≈ 0.367 µM)
N#Cc1cc2c(cc1C(F)(F)F)[nH]c(=O)c(=O)n2O [Example 6 d, 7-Cyano-1-hydroxy-6-trifluoromethylquinoxaline-2,3(1H,4H)-dione]	0.15 (≈ 0.553 µM)
NS(=O)(=O)c1cc2c(cc1C(F)(F)F)[nH]c(=O)c(=O)n2O [Example 33 d, 1-Hydroxy-7-sulfamoyl-6-trifluoromethylquinoxaline-2,3(1H,4H)-dione]	0.14 (≈ 0.43 µM)
O=c1[nH]c2cc(C(F)(F)F)c(Cl)cc2n(O)c1=O [Example 30 d, 7-chloro-1-hydroxy-6-trifluoromethylquinoxaline-2,3(1H,4H)-dione]	0.37 (≈ 1.32 µM)

target: quisqualic acid stimulated 3H-GABA efflux from cultured cortical neurones (quisqualate receptors); assay: Release experiments: antagonism of quisqualic acid stimulated 3H-GABA efflux from cultured cortical neurones; assay type: cell-based, mouse; conditions: Table 1 Ki; test not stated
Description: The pharmacological properties of the compounds of the present invention can be illustrated by determining their capability for displacing radioactively labelled 2-amino-3-hydroxy-5-methyl-4-isoxazolepropionic acid (AMPA) from the quisqualate type receptors. […]
Cerebral cortices of 16 day old mouse embryos are chopped in 0.4×0.4 mm cubes. The tissue is dissociated by mild trypsinization (0.1% (wt/vol) trypsin, 37° C., 15 min) and subsequently inoculated into poly-L-lysine-coated 3 cm Petri dishes containing a slightly modified DMEM (24.5 mM KCl, 30 mM glucose) supplemented with p-aminobenzoate (7 μM), insulin (100 mU/1) and 10% (vol/vol) horse serum. Cells are maintained in culture for 5-7 days with the addition of the antimitotic agent cytosine arbinoside (40 μM) from day 2 in vitro to prevent glial proliferation. For further details and references see Drejer et al. (Exp. Brain Res. 47, 259 (1982)).
Release experiments are performed using the model described by Drejer et al. (Life Sci. 38, 2077 (1986)). Cerebral cortex interneurons cultured in Petri dishes (30 mm) are added 100 μM gamma-vinyl-GABA one hour before the experiment in order to inhibit degradation of GABA in the neurons. 30 min. before the experiment 5 μCi ^3 H-GABA is added to each culture and after this preloading period the cell monolayer at the bottom of the dish is covered with a piece of nylon mesh to protect the cells against mechanical damage and to facilitate dispersion of medium over the cell layer. The preloading medium is removed and the Petri dishes are placed in a superfusion system. This system consists of a peristaltic pump continuously delivering thermostated 37° C. superfusion medium (HEPES buffered saline (HBS): 10 mM HEPES, 135 mM NaCl, 5 mM KCl, 0.6 mM MGSO4, 1.0 mM CaCl2 and 6 mM D-glucose; pH 7.4) from a reservoir to the top of the slightly tilted Petri dish. The medium is continuously collected from the lower part of the dish and delivered to a fraction collector. Initially, the cells are superfused with HBS for 15 min. (flow rate 2 ml/min.). The cells are stimulated for 30 sec. every 4 min. by changing the superfusion medium from HBS to a corresponding medium containing quisqualate and test compound. The release of ^3 H-GABA in the presence of quisqualate (stimulated release in cpm) are corrected for the mean basal release (Cpm) before and after the stimulation.

SMILES	Ki [µg/mL]
CC(=O)c1cc2c(cc1C#N)[nH]c(=O)c(=O)n2O [Example 34 e, 7-Acetyl-6-cyano-1-hydroxyquinoxaline-2,3(1H,4H)-dione]	0.27 (≈ 1.1 µM)
N#Cc1cc2c(cc1C(F)(F)F)[nH]c(=O)c(=O)n2O [Example 6 d, 7-Cyano-1-hydroxy-6-trifluoromethylquinoxaline-2,3(1H,4H)-dione]	0.08 (≈ 0.295 µM)
NS(=O)(=O)c1cc2c(cc1C(F)(F)F)[nH]c(=O)c(=O)n2O [Example 33 d, 1-Hydroxy-7-sulfamoyl-6-trifluoromethylquinoxaline-2,3(1H,4H)-dione]	0.02 (≈ 0.0615 µM)
O=c1[nH]c2cc(C(F)(F)F)c(Cl)cc2n(O)c1=O [Example 30 d, 7-chloro-1-hydroxy-6-trifluoromethylquinoxaline-2,3(1H,4H)-dione]	0.12 (≈ 0.428 µM)

test system: NMDA (N-methyl-D-aspartate) receptors; assay: not given; conditions: in words, literature; cited from earlier work

SMILES	agonist or antagonist activity on NMDA receptors
N[C@H](CCC[C@H](N)C(=O)O)C(=O)O [diaminopimelic acid]	moderate antagonist activity
N[C@H](CCC(=O)O)C(=O)O [D-glutamic acid]	strong to moderate agonist activity
N[C@H](CCCC(=O)O)C(=O)O [D-2-amino-adipic acid]	moderate antagonist activity
O=C(O)[C@@H]1CCCN[C@H]1C(=O)O (relative stereo) [trans-2,3-PDA, trans-2,3-piperidine dicarboxylic acid]	strong to moderate agonist activity
N[C@H](CCCP(=O)(O)O)C(=O)O [D-APV, 2-amino-5-phosphono-valeric acid]	most potent and selective antagonists
N[C@H](CCCCCP(=O)(O)O)C(=O)O [D-APH, 2-amino-7-phosphonoheptanoic acid]	most potent and selective antagonists
N[C@@H](CCS(=O)(=O)O)C(=O)O [L-homocysteic acid]	strong to moderate agonist activity
N[C@H](C(=O)O)c1cc(=O)[nH]o1 [Ibotenic acid]	strong to moderate agonist activity

test system: kainate receptors; assay: not given; conditions: in words, literature; cited from earlier work

SMILES	antagonism / inhibition of binding at kainate receptors
NC(CCC(=O)NCC(=O)O)C(=O)O (stereo not drawn) [3-glutamyl-glycine]	some selectivity for kainate receptors
